Measurements from patent US11452718B2 (AVALYN PHARMA INC., priority 2012, dated 2022).
Marks after values point to notes of the source that are not given here.

What was measured:
[1] = Buffer and pH effects: pirfenidone solubility in citrate and phosphate buffers; type: physicochemical; conditions: Citrate buffer 5 mM, pH 6; ambient temperature overnight
Procedure: The sample was agitated at ambient temperature overnight. The sample was visually inspected, appearance recorded, centrifuged to sediment any un-dissolved material, and the supernatant withdrawn via syringe through a 0.22 μm PVDF filter. […] The remaining filtered sample was split into three equal volumes in glass vials and placed at 25° C./60RH, 40° C./75RH and refrigeration. Samples were wrapped in aluminum foil to reduce light exposure. After the first night of incubation, samples were briefly visually inspected for any signs of discoloration or precipitate formation.

[2] = Pharmacokinetics and lung-tissue distribution after oral gavage or intratracheal aerosol; type: in vivo, Sprague-Dawley rats; conditions: for Lung AUC: for time >1 μg/g
Procedure: Solutions were vortexed until all crystals dissolved. […] Plasma samples were taken at pre-dose, 0.08, 0.16, 0.25, 0.5, 0.75, 1.0, 1.5, 2, 4, and 6 hours post dosing. For lung tissue samples, eight additional rats were also dosed 70 mg/kg by the oral route. Lungs were taken at pre-dose 0.08, 0.5, 2, and 4 hours post dosing. Materials were extracted and pirfenidone quantitated as μg/mL plasma and μg/gram lung tissue. […]

[3] = Process temperature development study (60° C. dissolution, cooling to 25° C.); type: physicochemical; conditions: for Pirfenidone (mg/mL) >Re-crystal: after stepwise cooling to 25° C. and later re-crystallization
Procedure: Formulations were prepared as described in Table 11. […] The final volume of each formulation was 5 mL. […] Each sample was mixed thoroughly and agitated overnight at 60° C. Rapid cooling and step-wise cooling from 60° C. to 25° C. was performed. HPLC analysis was performed on samples taken after overnight incubation and after cooling to 25° C. Prior to HPLC analysis, formulations were filtered via syringe through a 0.45 μm PVDF filter.

[4] = Intravenous push of pirfenidone to a mouse: plasma and lung levels; type: in vivo; conditions: 40 mg/kg intravenous dose; blood about 40% of wet lung weight
Procedure: Exemplary Lung Tissue Delivery Assumptions: • 1. The total wet weight of the adult human lung is about 685 to 1,050 grams (for calculations, conservatively about […]); • 2. The adult human lung blood volume is about 450 mL; • 3. The tissue weight of the adult human lung is conservatively 1,050 grams wet weight minus 450 mL blood weight (assuming density of 1.0), equals 600 grams; • 4. […] The inhaled route of administration is dependent upon a respirable delivered dose (RDD). The RDD is the fraction of drug inhaled in aerosol particles less than 5 microns in diameter; • 7. RDD of typical dry powder, liquid nebulization or meter-dose inhalation devices ranges from 10% to 70%. Higher and lower efficiency devices with RDDs greater than 70% and less than 10% also exist; • 8. […] From the above observations and calculations, the lower limit of efficacy in lung tissue is 8 mcg/gram; and • 10.

[5] = in vivo; cited from earlier work
[6] = Osmolality determination and nebulization for taste testing, throat irritation and cough response of selected formulations; conditions: for Cough Response? / Throat Irritation?: nebulized
Excerpt: Selected formulations were subjected to osmolality determination and nebulization for taste testing and throat irritation and or cough response.

[7] = bolus aerosol intratracheal 1 mg/kg
[8] = bolus aerosol intratracheal 5 mg/kg
[9] = EtOH 0, PG 8, PS80 0 % v/v, 92% phosphate buffer (5 mM), pH 6.6
[10] = EtOH 0, PG 8, PS80 0.04 % v/v, 92% phosphate buffer (5 mM), pH 6.7
[11] = EtOH 4, PG 0, PS80 0.04 % v/v, 96% phosphate buffer (5 mM), pH 6.6
[12] = EtOH 4, PG 8, PS80 0 % v/v, 88% phosphate buffer (5 mM), pH 6.7
[13] = EtOH 4, PG 8, PS80 0.04 % v/v, 88% phosphate buffer (5 mM), pH 6.7
[14] = pirfenidone 27.2 mg/mL, 4% EtOH, 8% PG, 88% phosphate buffer (5 mM), pH 6.6
[15] = pirfenidone 34.7 mg/mL, 6% EtOH, 12% PG, 82% phosphate buffer (5 mM), pH 7.0
[16] = pirfenidone 43.7 mg/mL, 8% EtOH, 16% PG, 0 mM sodium saccharin, 76% phosphate buffer (5 mM), pH 7.0
[17] = pirfenidone 43.7 mg/mL, 8% EtOH, 16% PG, 0.3 mM sodium saccharin, 76% phosphate buffer (5 mM), pH 7.0

Structure (SMILES): Cc1ccc(=O)n(-c2ccccc2)c1 [pirfenidone, 5-methyl-1-phenyl-2-(1H)-pyridone]
- Pirfenidone Saturation Solubility [1]: 18.4 mg/mL
- Lung TOE: time of exposure over 1 μg/g lung tissue [2, 7]: 5 min
- Lung Cmax ([2]; bolus aerosol intratracheal 1 mg/kg, immediate post-dose calculated from the direct-lung delivered dose): 101 µg/g
- Lung TOE: time of exposure over 1 μg/g lung tissue [2, 8]: 84 min
- Lung Cmax ([2]; bolus aerosol intratracheal 5 mg/kg, immediate post-dose calculated from the direct-lung delivered dose): 508 µg/g
- Lung AUC [2, 7]: 5.2 mg·h/kg
- Lung AUC [2, 8]: 25.4 mg·h/kg
- Lung AUC ([2]; oral 70 mg/kg): 4.3 mg·h/kg
- Lung Cmax ([2]; oral 70 mg/kg): 3.6 µg/g
- Lung TOE: time of exposure over 1 μg/g lung tissue ([2]; oral 70 mg/kg): 89 min
- full dissolution on heating ([3]; 60° C.): ≥ 50 mg/mL
- Observations: dissolution [3, 9]: Fully dissolved after overnight at 60 °C
- Observations: stable at 25° C. before re-crystallization [3, 9]: Stable at 25 °C for >4 hours before re-
- Pirfenidone (mg/mL) >60° C. [3, 9]: 54.6 mg/mL
- Pirfenidone (mg/mL) >Re-crystal [3, 9]: 18.6 mg/mL
- Observations: dissolution [3, 10]: Fully dissolved after overnight at 60 °C
- Observations: stable at 25° C. before re-crystallization [3, 10]: Stable at 25 °C for >4 hours before re-
- Pirfenidone (mg/mL) >60° C. [3, 10]: 52.8 mg/mL
- Pirfenidone (mg/mL) >Re-crystal [3, 10]: 22.3 mg/mL
- Observations: dissolution [3, 11]: Fully dissolved after overnight at 60 °C
- Observations: stable at 25° C. before re-crystallization [3, 11]: Stable at 25 °C for >4 hours before re-
- Pirfenidone (mg/mL) >60° C. [3, 11]: 50.7 mg/mL
- Pirfenidone (mg/mL) >Re-crystal [3, 11]: 22.4 mg/mL
- Observations: dissolution [3, 12]: Fully dissolved after overnight at 60 °C
- Observations: stable at 25° C. before re-crystallization [3, 12]: Stable at 25 °C for >4 hours before re-
- Pirfenidone (mg/mL) >60° C. [3, 12]: 50.34 mg/mL
- Pirfenidone (mg/mL) >Re-crystal [3, 12]: 27.6 mg/mL
- Observations: dissolution [3, 13]: Fully dissolved after overnight at 60 °C
- Observations: stable at 25° C. before re-crystallization [3, 13]: Stable at 25 °C for >4 hours before re-
- Pirfenidone (mg/mL) >60° C. [3, 13]: 51.8 mg/mL
- Pirfenidone (mg/mL) >Re-crystal [3, 13]: 26.8 mg/mL
- outcome of rapid cooling ([3]; rapid cooling to 25° C.): rapid recrystallization
- concentration staying in solution for several hours ([3]; slow step-wise cooling from 60° C. to 25° C.): about 50 mg/mL
- lung tissue level after subtracting blood contribution [4]: about 8 mcg/g
- administered dose excreted in the urine [5]: about 80%
- Cough Response? [6, 14]: No
- Throat Irritation? [6, 14]: No
- Cough Response? [6, 15]: No
- Throat Irritation? [6, 15]: No
- Cough Response? [6, 16]: No
- Throat Irritation? [6, 16]: No
- Cough Response? [6, 17]: No
- Throat Irritation? [6, 17]: No
- Osmolality ([6]; pirfenidone 27.2 mg/mL, 4% EtOH, 8% PG, 88% phosphate buffer (5 mM), pH 6.6, calculated): ~1830* mOsmo/Kg
- Osmolality ([6]; pirfenidone 34.7 mg/mL, 6% EtOH, 12% PG, 82% phosphate buffer (5 mM), pH 7.0, calculated): ~2750* mOsmo/Kg
- Osmolality [6, 16]: 3672 mOsmo/Kg
- Osmolality [6, 17]: 3672 mOsmo/Kg
